Reference: patent US20250090510A1, “eIF4G1-eIF1 INHIBITORS AND USE THEREOF” (YEDA RESEARCH AND DEVELOPMENT CO. LTD., priority 2022, published 2025)

Tested on: eIF2α S52A mutant cells
Assay: Polysome profiling and real-time PCR in eIF2α S52A mutant cells
Type: cell-based, mouse
Conditions: i14G1-10 30 μM, i14G1-12 15 μM, 3 h; for translation of ISR genes in polysome fractions: S52A cells; for overall translation, polysome to monosome ratio (P/M): S52A mutant cells
Text: FIGS. 6A-G: i14G1-10 and i14G1-12 uncover roles of the eIF4G1-eIF1 complex in ISR, cell cycle and cell survival. […] (6B). Ribo-seq and TI-seq read tracks of representative stress response-associated mRNAs (i.e., ATF3, and GADD45A) in DMSO (black), i14G1-10 (red), and i14G1-12 (green) samples. The red triangle represents 5′UTR TIS codons and the green denotes annotated TIS. Black arrows show the translation direction. (6C) Mouse embryonic fibroblasts (MEFs) control cells and eIF2αS52A mutant MEF cells were treated with Thapsigargin (1 μM) for 1h. Cells were lysed, and cell lysate was analyzed using western blot with the indicated antibodies. (6D) Control cells and eIF2αS52A mutant MEF cells were treated with DMSO, i14G1-10 (30 μM) or i14G1-12 (15 μM) for 3 h, cells were lysed in polysome buffer and loaded onto sucrose density gradient for polysome separation followed by fractionation. The graph presents the polysomes vs monosomes ratio in control MEFs (purple) and eIF2αS52A mutant cells (blue). (6E) Fractions were pooled (from 6D) according to the polysome profile as free (grey), light (blue), and heavy (yellow) polysomal fractions. cDNA was prepared from each fraction pool and real-time PCR was performed for the indicated stress response genes. The data are shown as mean±SEM, n=3. The asterisks denote statistically significant differences compared to DMSO, according to Student's t-tests (one-tailed, paired), *p<0.05; **p<0.01. (6F-G). HEK293T cells were transfected with HA-eIF1 or HA-eIF4E, 48 h later, treated with (6F) 1 μM Thapsigargin or (6G) 250 nM Torin-1. Cell lysates were subjected to immunoprecipitation with HA-agarose beads to precipitate HA-eIF1 and HA-eIF4E to check for co-IP of eIF4G1 using western blot (left). The graphs on the right represent the relative chemiluminescence signal intensity of the co-immunoprecipitation of eIF4G1 with HA-eIF1 or HA-eIF4E of 4 independent experiments. The asterisks denote statistically significant difference compared to DMSO *p<0.05; **p<0.01.
FIGS. 7A-E: (7A) Ribo-seq and TI-seq read tracks of representative stress response-associated mRNAs (DDIT3 and GADD34) in DMSO (black), i14G1-10 (red), and i14G1-12 (green) samples. The red triangle represents 5′UTR TIS codons and the green denotes annotated TIS. Black arrows show the translation direction. […] The graphs in the lower panel are the quantification of ATF4's uORF1′, uORF1, uORF2, and main-ORF reads of the Ribo-seq data. The asterisks denote statistically significant difference compared to DMSO, according to Student's t-tests (one-tailed, paired). **p<0.01, ***p<0.001, ****p<0.0001. (7C) HEK293T cells were treated with DMSO, i14G1-10, and i14G1-12 for 3 h, lysed and subjected to sucrose gradient sedimentation and fractionation. […]

SMILES	translation of ISR genes in polysome fractions	overall translation, polysome to monosome ratio (P/M)
O=C(/C=C/Sc1ccc(C(F)(F)F)cn1)c1ccccc1 [i14G1-10]	upregulated	not significantly
Cn1ccnc1S/C(=C/C=C(C#N)C#N)c1ccc(Cl)cc1 [i14G1-12]	upregulated	further inhibited
